# Assays:
# [1] = tested on: cord-blood-derived, bone marrow-derived, and peripheral blood derived hematopoietic cells; settings: grown without a feeder layer; cited from earlier work
# [2] = tested on: hematopoietic stem/progenitor cells (CD34+ or CD133+); experiment: Ex vivo expansion of hematopoietic cells; format: cell-based, human; settings: cultured with cytokines plus inhibitor, compared to cells cultured with cytokines alone
# Protocol: Cell cultures of human hematopoietic cells: Human umbilical cord blood cells were obtained from umbilical cord blood after normal full-term delivery (informed consent was given). MPB, or BM were obtained from donations (informed consent was given). Samples were either used fresh or collected and frozen according to well known cord blood cryopreservation protocol (Rubinstein et al. 1995) within 24 hours postpartum for UCB or according to common practice regarding MPB and BM. Prior to cryopreservation, blood was sedimented for 30 minutes on […] Starch (hydroxyethyl starch) to remove most RBC. Prior to their use, the cells were thawed in Dextran buffer (Sigma, St. Louis, Mo., USA) containing 2.5% human serum albumin (HSA)(Bayer Corp. Elkhart, Ind., USA) and processed as described herein below. Following thawing, where indicated, the leukocyte-rich fraction was harvested and layered on Ficoll-Hypaque gradient (1.077 g/mL; Sigma Inc, St Louis Mo., USA), and centrifuged at 400×g for 30 minutes. The mononuclear cell fraction in the interface layer was then collected, washed three times, and re-suspended in phosphate-buffered saline (PBS) (Biological Industries, Bet HaEmek, Israel) containing 0.5% human serum albumin (HSA) (Bayer Corp. Elkhart, Ind., USA). […] The purity of the CD133^+ populations thus obtained was 80-95%, as evaluated by flow cytometry. […]
SMILES,fraction of CD34+ cells and long-term clonability [1],enrichment of stem/early progenitor cell subsets (CD34+CD38− and CD34+Lin−) in cultured population [2]
"NCCNCCNCCNCCN [TEPA, tetraethylpentamine]",greatly enhanced the fraction of CD34^+ cell and their long-term clonability,
NC(=O)c1cccnc1 [nicotinamide],,enriched with subsets of stem/early progenitor cells
